Laboratory results taken from ChEMBL document CHEMBL1201862, “PubChem BioAssay data set” (2004).
Activity calls are given as the source filed them.

What was measured:
[1] = biological target: T1, Runt-related transcription factor 1/Core-binding factor subunit beta (Homo sapiens, UniProt Q01196+Q13951); assay: disruptors of Runt domain/CBFb-SMMHC interaction – biochemical, FRET, Cerulean-Runt, Venus-CBFb-SMMHC, uHTS, […] (AID 1434); format: protein assay
[2] = biological target: T1, Runt-related transcription factor 1/Core-binding factor subunit beta; assay: Runt domain/CBFb-SMMHC interaction disruptors – biochemical, TR-FRET (AID 1438); format: protein assay
Estrogen receptor = biological target: T2, Estrogen receptor (Homo sapiens, UniProt P03372);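 further: potency for inhibiting coactivator peptide recruitment to the receptor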
T2 sequence (P03372 whole entry): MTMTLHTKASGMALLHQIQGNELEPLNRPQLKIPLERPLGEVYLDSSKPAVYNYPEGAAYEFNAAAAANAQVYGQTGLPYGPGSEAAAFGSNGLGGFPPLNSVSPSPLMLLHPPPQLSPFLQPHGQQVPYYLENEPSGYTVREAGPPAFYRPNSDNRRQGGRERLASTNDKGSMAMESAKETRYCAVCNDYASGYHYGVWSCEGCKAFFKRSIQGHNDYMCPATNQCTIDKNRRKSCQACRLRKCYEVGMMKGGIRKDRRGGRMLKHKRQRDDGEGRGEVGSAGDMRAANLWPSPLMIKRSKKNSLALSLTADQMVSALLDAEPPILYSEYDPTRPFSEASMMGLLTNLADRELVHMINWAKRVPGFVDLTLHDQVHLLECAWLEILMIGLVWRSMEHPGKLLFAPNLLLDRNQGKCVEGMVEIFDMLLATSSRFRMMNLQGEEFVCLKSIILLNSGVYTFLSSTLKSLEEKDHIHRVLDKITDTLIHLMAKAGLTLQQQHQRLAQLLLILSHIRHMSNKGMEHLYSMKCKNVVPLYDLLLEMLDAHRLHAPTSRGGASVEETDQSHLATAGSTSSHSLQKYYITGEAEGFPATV

Troponin, cardiac muscle = Troponin, cardiac muscle (Homo sapiens, UniProt P19429+P45379+P63316); assay: Fluorescence-based biochemical high throughput dose response assay for activators of the calcium sensitivity of cardiac Regulated Thin Filaments (RTF). [Related pubchem assays (depositor defined):AID493008, AID493018, AID504382, AID504383]; format: protein-complex assay
[3] = biological target: T3, Short transient receptor potential channel 4 (Mus musculus, UniProt Q9QUQ5); assay: calcium entry via TRPC4 opening agents – cell-based, HEK293 TRPC4/mu-opioid, Fluo-4 calcium, dose response (AID 434937); format: functional
T3 sequence (Q9QUQ5 whole entry): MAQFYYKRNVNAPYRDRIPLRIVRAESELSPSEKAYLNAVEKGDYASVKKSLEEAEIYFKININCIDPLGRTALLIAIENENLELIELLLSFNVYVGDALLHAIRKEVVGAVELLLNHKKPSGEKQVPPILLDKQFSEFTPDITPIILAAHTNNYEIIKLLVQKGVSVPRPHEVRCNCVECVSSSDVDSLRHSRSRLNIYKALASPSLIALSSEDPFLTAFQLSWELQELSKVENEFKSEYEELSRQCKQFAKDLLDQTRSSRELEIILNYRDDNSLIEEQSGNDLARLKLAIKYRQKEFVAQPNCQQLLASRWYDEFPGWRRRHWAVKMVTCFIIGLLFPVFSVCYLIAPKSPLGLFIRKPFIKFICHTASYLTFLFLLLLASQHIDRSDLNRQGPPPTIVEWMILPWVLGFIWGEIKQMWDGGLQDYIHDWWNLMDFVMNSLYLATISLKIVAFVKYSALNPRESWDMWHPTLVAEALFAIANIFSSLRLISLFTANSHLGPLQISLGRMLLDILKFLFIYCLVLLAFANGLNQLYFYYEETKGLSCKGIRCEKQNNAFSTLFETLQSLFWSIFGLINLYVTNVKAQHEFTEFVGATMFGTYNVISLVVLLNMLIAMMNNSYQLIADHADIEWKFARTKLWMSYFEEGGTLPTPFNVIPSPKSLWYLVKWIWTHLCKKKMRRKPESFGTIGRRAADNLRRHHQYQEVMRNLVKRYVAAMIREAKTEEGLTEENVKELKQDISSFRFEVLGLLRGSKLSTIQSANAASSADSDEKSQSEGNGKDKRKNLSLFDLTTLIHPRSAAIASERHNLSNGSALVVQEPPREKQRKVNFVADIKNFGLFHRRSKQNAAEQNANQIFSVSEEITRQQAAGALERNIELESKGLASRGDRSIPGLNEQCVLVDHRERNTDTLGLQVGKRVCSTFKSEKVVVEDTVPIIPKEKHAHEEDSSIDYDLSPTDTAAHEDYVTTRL

[4] = biological target: Peroxisome proliferator-activated receptor gamma/Nuclear receptor coactivator 1 (Homo sapiens, UniProt P37231); assay: (§1) TR-FRET dose response biochemical High Throughput Screening assay for agonists of the steroid receptor coactivator 1 (SRC-1) recruitment by the peroxisome proliferator-activated receptor gamma (PPAR gamma): non-selective agonists. [Related pubchem assays (depositor defined):AID1300, AID1808, AID504735, AID631]; format: protein assay
[5] = biological target: Peroxisome proliferator-activated receptor gamma/Nuclear receptor coactivator 3 (Homo sapiens, UniProt P37231); assay: as §1, with “3 (SRC-3)” for “1 (SRC-1)”, “assays: 1301 (Confirmation screen.), 1048 (Primary screen.)]” for “assays (depositor defined):AID1300, AID1808, AID504735, AID631]”; format: functional
[6] = biological target: Peroxisome proliferator-activated receptor gamma/Nuclear receptor coactivator 2 (Homo sapiens, UniProt P37231); assay: TR-FRET dose response biochemical High Throughput Screening assay for agonists of the steroid receptor coactivator 2 (SRC-2) recruitment by the peroxisome proliferator-activated receptor gamma (PPAR gamma): non-selective agonists. [Related pubchem assays: 1297, 1032 ]; format: functional
[7] = biological target: Alkaline phosphatase, placental type (Homo sapiens, UniProt P05187); assay: human placental alkaline phosphatase inhibition – biochemical, luminescence, confirmation (AID 1512); format: functional
[8] = biological target: T4, Alkaline phosphatase, tissue-nonspecific isozyme (Homo sapiens, UniProt P05186); assay: potency against alkaline phosphatase TNAP – biochemical, luminescent, dose response, SAR follow-up (AID 1056)
T4 sequence (P05186 whole entry): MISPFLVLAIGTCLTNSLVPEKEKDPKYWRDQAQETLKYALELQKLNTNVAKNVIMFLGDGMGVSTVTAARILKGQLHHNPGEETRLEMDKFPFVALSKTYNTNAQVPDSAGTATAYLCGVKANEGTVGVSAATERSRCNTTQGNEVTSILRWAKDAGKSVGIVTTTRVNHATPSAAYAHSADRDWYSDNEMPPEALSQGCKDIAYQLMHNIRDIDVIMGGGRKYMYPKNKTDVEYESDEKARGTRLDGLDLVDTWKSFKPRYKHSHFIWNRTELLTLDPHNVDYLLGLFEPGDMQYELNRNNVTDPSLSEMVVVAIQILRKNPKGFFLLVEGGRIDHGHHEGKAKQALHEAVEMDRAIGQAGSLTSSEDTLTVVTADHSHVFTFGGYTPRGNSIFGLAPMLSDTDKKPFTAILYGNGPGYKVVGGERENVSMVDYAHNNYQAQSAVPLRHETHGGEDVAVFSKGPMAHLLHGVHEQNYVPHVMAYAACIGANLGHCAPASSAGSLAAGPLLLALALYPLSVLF

Protein Rev = Protein Rev (Human immunodeficiency virus type 1 group M subtype B (isolate HXB2)(HIV-1), UniProt P04618); assay: blockers of HIV Rev/RRE RNA complex – biochemical, fluorescence polarization, HIV-1, dose response (AID 434976); parameters: species or system Human immunodeficiency virus 1
[9] = biological target: Female germline-specific tumor suppressor gld-1 (Caenorhabditis elegans, UniProt Q17339); assay: blockers of GLD-1/TGE RNA complex formation – biochemical, fluorescence polarization, C. elegans, dose response (AID 2802);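 further: fluorescence polarization of labeled TGE RNA bound by purified gld-1 protein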
[10] = biological target: T5, Corticotropin-releasing factor receptor 2/Corticotropin-releasing factor-binding protein (Homo sapiens, UniProt P24387+Q13324); assay: Dose Response confirmation of uHTS hits for small molecule antagonists of the CRF-binding protein and CRF-R2 receptor complex.; format: functional; conditions: read-out: IC50_Mean
T5 sequence (Q13324 whole entry): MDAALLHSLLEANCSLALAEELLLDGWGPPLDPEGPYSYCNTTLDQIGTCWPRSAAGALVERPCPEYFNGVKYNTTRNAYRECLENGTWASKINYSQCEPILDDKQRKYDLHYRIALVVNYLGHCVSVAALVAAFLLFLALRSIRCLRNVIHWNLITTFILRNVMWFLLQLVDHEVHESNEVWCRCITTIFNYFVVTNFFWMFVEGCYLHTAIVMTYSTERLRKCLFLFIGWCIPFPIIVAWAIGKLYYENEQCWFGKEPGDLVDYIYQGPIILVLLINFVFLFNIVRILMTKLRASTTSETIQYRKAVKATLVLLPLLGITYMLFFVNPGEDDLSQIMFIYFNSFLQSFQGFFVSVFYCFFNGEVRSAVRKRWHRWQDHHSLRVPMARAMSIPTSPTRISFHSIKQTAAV
T5 sequence (P24387 whole entry): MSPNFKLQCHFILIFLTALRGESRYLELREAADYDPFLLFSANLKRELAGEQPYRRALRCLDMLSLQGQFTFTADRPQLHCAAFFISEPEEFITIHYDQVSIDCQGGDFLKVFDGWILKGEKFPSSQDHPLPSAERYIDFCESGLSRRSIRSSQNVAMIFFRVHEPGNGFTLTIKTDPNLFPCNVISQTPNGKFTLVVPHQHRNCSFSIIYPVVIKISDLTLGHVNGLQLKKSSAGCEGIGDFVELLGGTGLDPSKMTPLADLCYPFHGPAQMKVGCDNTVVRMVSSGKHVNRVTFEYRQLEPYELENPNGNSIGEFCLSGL

[11] = biological target: T5, Corticotropin-releasing factor receptor 2/Corticotropin-releasing factor-binding protein; assay: activators of CRF receptor 2 with binding protein – uHTS hits, confirmation (AID 602473); format: functional; conditions: read-out: EC50_Mean
SUMO-activating enzyme [12] = biological target: T6, SUMO-activating enzyme (Homo sapiens, UniProt Q9UBT2); assay: blockers of UBC9-mediated SUMO conjugation – biochemical, AlphaScreen, SUMOylation inhibitor project, confirmation (AID 2018); format: functional
SUMO-activating enzyme [13] = biological target: T6, SUMO-activating enzyme; assay: blockers of SAE1/SAE2–UBC9 SUMO transfer – biochemical, HTRF, uHTS, primary screen (AID 2006); format: protein-complex assay
[14] = viability of PTEN-deleted HCT116 cells – cell-based, HCT116 PTEN knockout, dose response (AID 1047); format: functional;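 further: HCT116 colon tumor cells with PTEN knocked out; cells exposed to compound for 60 hours before readout; potency for loss of cell viability measured by luminescence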
[15] = viability of HCT116 lacking mutant beta-catenin – cell-based, human colon tumor, dose response (AID 1045); format: functional;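 further: HCT116 colon tumor cells with beta catenin knocked out; cells exposed to compound for 60 hours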
[16] = THP-1 cell cytotoxicity, dose response, cytotoxicity control for non-replicating M. tuberculosis project (AID 489025); format: functional
[17] = HepG2 cell cytotoxicity, dose response, cytotoxicity control for non-replicating M. tuberculosis project (AID 489018); format: functional; conditions: Mycobacterium tuberculosis
[18] = Vero E6 cell cytotoxicity, dose response, cytotoxicity control for non-replicating M. tuberculosis project, secondary assay (AID 492998); format: functional, VeroE6; conditions: Vero C1008
cells = format: functional
INS1 = assay: INS-1E survival protection against cytokine death – cell-based, luminescence, retest, dose response (AID 449756); format: functional; conditions: Rattus norvegicus;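 further: cell death triggered by IL-1 beta plus TNF-alpha plus IFN-gamma mixture; protective hits raise ATP signal compared with cytokine alone wells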
[19] = biological target: Glyceraldehyde-3-phosphate dehydrogenase (Homo sapiens, UniProt P04406)
Ephrin type-A receptor 4 = Ephrin type-A receptor 4 (Mus musculus, UniProt Q03137); assay: EphA4 ligand-binding antagonists – biochemical, colorimetric, mouse EphA4, primary screen (AID 689); format: functional
SUMO E1/E2 = SUMO E1/E2 (Homo sapiens, UniProt P63279+Q9UBE0+Q9UBT2); assay: SAR analysis of SUMOylation using HTRF in an in-Vitro dose response assay. [Related pubchem assays (depositor defined):AID2006, AID2011, AID2018, AID2069, AID2658]; format: functional

With Cc1cccn2c(=O)c(/C=C(\C#N)C(=O)NCc3ccco3)c(N3CCC(C(N)=O)CC3)nc12 the IC50 [1] was > 100 µM (inactive) and the IC50 [2] was > 100 µM (inactive).
For O=C(Nc1nc(-c2nc3ccccc3s2)cs1)C1COc2ccccc2O1 (configuration not stated), the IC50 (Estrogen receptor) was 25.1 µM (active) and the EC50 (Troponin, cardiac muscle) was > 71.5 µM (inactive).
For CCn1c(N2CCN(C(S)=NCC(C)C)CC2)nc2ccccc21, the EC50 [3] was 1.68 µM (active).
In the case of CCCC(C)NC(=O)c1ccc(OCc2ccc(Cl)cc2)c(OC)c1 (configuration not stated), the EC50 [4] is reported as 157 µM (inactive), the EC50 [5] is reported as 13.8 µM (not active) and the EC50 [6] is reported as > 79.4 µM (not active).
With CCc1nnc(SCC(=O)c2ccc(O)c(O)c2)[nH]1 the IC50 [7] was 3.25 µM (active) and the IC50 [8] was 10.9 µM (active).
With CCOc1cc(C2C(C(=O)OC)=CN(C3CCCC3)C=C2C(=O)OC)cc(Br)c1O the IC50 (Protein Rev) was > 75.4 µM (not active), the IC50 [9] was > 59.6 µM (inactive) and the IC50 [10] was > 47.1 µM (inactive). For the same compound, the EC50 [11] was > 53 µM (inactive).
For CCn1cc(CN2CCC(n3nccc3NC(=O)CCOc3ccccc3)CC2)cn1, the EC50 [3] was 1.19 µM (active).
In the case of Cc1ccc(NC(=O)c2ccccc2OCC(=O)Nc2cccc(Cl)c2C)nc1, the IC50 (SUMO-activating enzyme [12]) is reported as 34.5 µM (active) and the IC50 (SUMO-activating enzyme [13]) is reported as 17.8 µM (active).
With O=C(Cc1ccccc1)N/N=C/c1ccc([N+](=O)[O-])s1 the EC50 [14] was 9.53 µM (active), the EC50 [15] was 8.44 µM (active) and the CC50 [16] was 26.6 µM (active). For the same compound, the CC50 [17] was 16 µM (active), the CC50 [18] was 12.5 µM (active) and the IC50 (cells) was 11.1 µM (active). For the same compound, the AC50 (INS1) was 6.38 µM (active).
With O=C(c1cc(-c2ccc(Cl)cc2Cl)n[nH]1)N1CCOCC1 the IC50 [19] was > 100 µM (not active) and the IC50 [7] was > 100 µM (inactive).
With CCOc1cc(C2C3=C(CCCC3=O)N(CCC(=O)O)C3=C2C(=O)CCC3)ccc1OS(=O)(=O)c1ccc(C)cc1 the IC50 [1] was 0.629 µM (active) and the IC50 [2] was 30.5 µM (active).
With COc1ccc(-n2c(NC(=O)c3ccc(Br)o3)c(C#N)c3nc4ccccc4nc32)cc1 the IC50 (SUMO-activating enzyme [12]) was 8.09 µM (active), the IC50 (SUMO-activating enzyme [13]) was 17.8 µM (active) and the IC50 (Ephrin type-A receptor 4) was > 100 µM (not active). For the same compound, the IC50 (SUMO E1/E2) was 20.2 µM (active).
